Entries after “also recorded” stand apart in the source; their conditions may differ. Structures can show the parent of a compound that is named as a salt.
What was measured:
[1] = system: LPS activated macrophages; assay: Cytokine gene expression by RT-PCR in LPS activated bone marrow macrophages; type: cell-based; settings: PEA 50 μM in DMSO, LPS 200 ng/ml, 24 hours; versus LPS alone
Experimental: Bone marrow macrophages were cultured for 24 hours, followed by treatment with lipopolysaccharides (LPS) from Escherichia coli O111:B4 (to activate macrophages) and the endocannabinoid molecule, dissolved in dimethyl sulfoxide (DMSO). After 24 hours of treatment, the cells are lysed, and the RNA collected. Gene expression is determined using RT-PCR. The expression of inflammatory cytokines such as Tumor Necrosis Factor Alpha (TNF-α), Interleukin-1-Beta […] and Interleukin-6 are used to determine the anti-inflammatory effect of the endocannabinoid solution. For example, macrophages were cultured for 24 hours and treated with LPS (200 ng/ml) and PEA (50 μM). After 24 hours, cells were lysed, and the RNA collected.
Bone marrow macrophages are cultured for 24 hours, followed by treatment with lipopolysaccharides (to activate macrophages) and the endocannabinoid dissolved in DMSO or endocannabinoid nanoparticle formulation at the same concentration. 24 hours after treatment, the cells were lysed, and the RNA collected. Gene expression is determined using RT-PCR. The expression of inflammatory cytokines such as Tumor Necrosis Factor Alpha (TNF-α), and Interleukin-1-Beta (IL1β) is used to determine the anti-inflammatory effect of the endocannabinoid solution.

MIA induced OA rats = assay: Paw withdrawal threshold with Von Frey filaments in MIA induced OA rats (Examples 1-2); type: in vivo, rat
Source text: Von Frey data typically refers to experimental data collected using the von Frey filaments or hairs, which are instruments commonly used in neuroscience and behavioral research to assess mechanical sensitivity or tactile allodynia (an increased sensitivity to touch, often associated with pain or discomfort) in animals, particularly rodents. The von Frey test involves applying calibrated filaments of varying forces to the skin of an animal, usually the hind paw of a rodent. The animal's response is overserved to determine its sensitivity to mechanical stimuli. The data collected during von Frey testing may include a) Threshold Response: The force or bending pressure at which the animal first responds to the filament. This is often referred to as the “withdrawal threshold” and is an indicator of the animal's sensitivity to touch; b) Response Frequency: The number of positive responses (e.g., paw withdrawal, licking, or shaking) to the application of the von Frey filaments. This information provides a measure of the intensity or frequency of the animal's response to the mechanical stimulus; and c) Response Latency: The time it takes for the animal to respond after the application of the von Frey filament. A shorter response latency may indicate increased sensitivity.
The injections were 50 μL each and the Bupivacaine HCL (1.5 mg/mL) was dissolved in 0.9% saline. […] FIG. 1 depicts the locations in the knee where the periarticular injections of only bupivacaine were administered.
Periarticular injections of local anesthetics into these specific locations can prolong the duration of analgesia compared to intra-articular injections into the knee joint. […]
FIG. 3 is a graph that depicts the change from the baseline pre-injury values of the animals versus time in days. […] FIG. 3 depicts the paw withdrawal threshold as measured using Von Frey filaments. in MIA induced OA rats.

[2] = system: female Sprague Dawley Rats injected with mono-iodoacetate to induce OA; assay: Joint diameter (vernier caliper) as measure of joint inflammation in MIA induced OA rats; type: in vivo, rat; settings: periarticular, bupivacaine HCl 1.5 mg/ml, 50 μL/location
Experimental: This example was conducted to determine in-vivo inflammation. […] The joint inflammation is assessed via vernier caliper measurements. For example, female Sprague Dawley Rats were injected with 30 μL of mono-iodoacetate solution to induce OA. […] The injections were done under X-ray guidance using a C-arm for increased precision. Inflammation was assessed using a vernier caliper at the knee joint. […] Vernier caliper measurements show reduced inflammation in the bupivacaine+PEA nanoparticles group compared to the bupivacaine HCL only group at day 3 and day 7. At day 7, the inflammation in the bupivacaine+PEA nanoparticles group is not different from the baseline. At day 3, the inflammation in the bupivacaine HCl only group is higher than the MIA group. Statistical tests were conducted using only one way ANOVA with Brown Forsythe and Welsh tests.
FIG. 9 is a graph depicting joint diameter upto 21 days. […] The treatment groups are high does of bupivacaine HCl at 1 location (N=4), periarticular PEA nanoparticles at 2 locations +high does bupivacaine HCL at 1 location (N=5) with control of MIA (3 mg; N=6). The treatment groups with PEA nanoparticles show anti-inflammatory effects for 3 weeks. Statistical tests were conducted using only one way ANOVA with Brown Forsythe and Welsh tests.

[3] = system: female Sprague Dawley Rats injected with mono-iodoacetate to induce OA; assay: Paw withdrawal threshold with Electronic Von Frey in MIA induced OA rats (Examples 8-9); type: in vivo, rat
Experimental: This example was conducted to determine in-vivo pain response. […] Pain response was assessed using Von Frey filaments that measure mechanical allodynia. Paw withdrawal threshold was measured using Electronic Von Frey [IITC]. For example, female Sprague Dawley Rats were injected with 30 μL of mono-iodoacetate solution to induce OA. […] The results were compared to rodents with 2 injections of bupivacaine HCl in 0.9% saline (1.5 mg/ml) in those specific periarticular locations. […] FIG. 10 depicts electronic Von Frey measurements done with treatment groups using bupivacaine HCL periarticularly injected at 2 locations alone and periarticular injection of PEA nanoparticles with bupivacaine HCL at 2 locations.
This example was conducted to determine the effect of increasing the dosage of the local anesthetic as commonly 5 mg/mL bupivacaine is used clinically. […] For example, female Sprague Dawley Rats were injected with 30 μL of mono-iodoacetate solution (MIA) to induce OA.
Pain response was measured using Von Frey measurements. […] The PEA nanoparticles with high dose of bupivacaine HCL extended pain relief more than 4 weeks compared to a few hours in the high dose bupivacaine HCL alone group. […]

Structure (SMILES): CCCCCCCCCCCCCCCC(=O)NCCO [PEA, palmitoylethanolamide]
- gene expression of IL6 [1]: significantly less than in the LPS alone control group
- gene expression of ILβ [1]: significantly less than in the LPS alone control group
- gene expression of TNF-α [1]: significantly less than in the LPS alone control group

Structure (SMILES): CCCCN1CCCCC1C(=O)Nc1c(C)cccc1C (stereo not drawn) [bupivacaine HCL, bupivacaine HCl]
- duration of efficacy (analgesia) (MIA induced OA rats; intraarticular injection of same amount of bupivacaine HCL): 3 days
- duration of efficacy (analgesia) (MIA induced OA rats; periarticular injection at 4 locations, 50 μL each, 1.5 mg/mL in 0.9% saline): 17 days
- pain relief versus disease control (paw withdrawal threshold, change from baseline) (MIA induced OA rats; periarticular injections at 1, 2 or 4 locations): prolonged pain relief compared to the disease control
- joint diameter at day 3 [2]: significantly increased joint diameter or inflammation compared to the injection of MIA alone
- duration of pain relief ([3]; bupivacaine 3 mg/ml, 50 μL at one location (superior lateral)): a few hours
- hypoalgesic and analgesic efficacy on increasing the bupivacaine dose ([3]; bupivacaine increased from 1.5mg/ml to 3 mg/mL (0.15% to 0.3%), HCl): significant reduction in the hypoalgesic and analgesic effect; also recorded: significantly reduced the efficacy
